Entries after “also recorded” stand apart in the source; their conditions may differ.
Tested on: mice exposed to lethal radiation (772 cGy)
Test: Survival of mice after lethal irradiation (772 cGy) with PTH treatment
Assay type: in vivo, B6 mice
Conditions: for Thirty day survival: no treatment 50%; for 49 day survival: vehicle 60%
Experimental: In a study of 98 mice exposed to lethal irradiation, half received placebo (saline) and half received daily PTH 80 mcg/kg/day for 28 days. There was a survival advantage in the PTH treated group, 24/49 survived vs placebo, 16/49, (95% CI, 0.7707, 2.462).
80 ug/day PTH therapy followed lethal irradiation (772 cGy) exposure. 49 mice were treated with daily PTH (80 mcg/kg/d sc×28 days) 24 hours following a lethal radiation exposure of 772 cGy and compared to 49 vehicle treated control animals. Outcome measures included platelet counts, survival, and other hematopoietic studies. When censoring for technical deaths, 46 animals were analyzed in the placebo group (daily saline injections) with 47 analyzed from the daily PTH 80 mcg/kg/day treatment. […] Thirty-day survival in the placebo group was 18/46 or 39%. Of the PTH treated animals 26/47 animals survived (55%, p=0.2).
In another set of dose finding experiments, the same radiation exposure was used (772 cGy). Three treatment groups were studied: (1) untreated (no placebo, n=8), (2) treated with 200 mcg/kg PTH daily beginning 24 hours after radiation exposure, n=12, (3) treated with 200 mcg/kg PTH twice daily beginning 24 hours after radiation exposure, n=12.
Comparison was made of animals treated with PTH, 200 ug/day, 200 ug twice daily (BID) vs those receiving no PTH treatment following lethal irradiation (772 cGy).
Three groups of B6 mice underwent irradiation.
Group 1 received no treatment, n=8.
Group 2 received PTH, 200 micrograms/kg/day, n=10, first begun 24 hours following radiation exposure to 772 cGy and continued for 28 days.
Group 3 received the same duration of PTH but instead was treated twice daily, 200 micrograms/kg/day BID for a daily total dose of 400 mcg/kg/day, n=12.
Four cohorts of B6 mice were irradiated to uniform, total body, midline tissue dose at a dose rate of 80+2.5 cGy/min to a dose of 772 cGy.
Group 1 received vehicle control (saline) treatment×28 days, beginning 24 hours after radiation, n=10.
Group 2 received PTH, 400 micrograms/kg/day, n=10, first begun 24 hours following radiation exposure to 772 cGy and continued for 28 days.
Group 3 received PTH, 1000 micrograms/kg/day, n=10, 24 hours following radiation, and then 400 mcg/kg/day for 7 days.
Group 4 received PTH, 400 micrograms/kg/day, n=10, 24 hours following radiation, and continued for 7 days.

CC[C@H](C)[C@H](NC(=O)[C@H](CCC(=O)O)NC(=O)[C@H](CO)NC(=O)[C@@H](NC(=O)[C@@H](N)CO)C(C)C)C(=O)N[C@@H](CCC(N)=O)C(=O)N[C@@H](CC(C)C)C(=O)N[C@@H](CCSC)C(=O)N[C@@H](Cc1cnc[nH]1)C(=O)N[C@@H](CC(N)=O)C(=O)N[C@@H](CC(C)C)C(=O)NCC(=O)N[C@@H](CCCCN)C(=O)N[C@@H](Cc1cnc[nH]1)C(=O)N[C@@H](CC(C)C)C(=O)N[C@@H](CC(N)=O)C(=O)N[C@@H](CO)C(=O)N[C@@H](CCSC)C(=O)N[C@@H](CCC(=O)O)C(=O)N[C@@H](CCCN=C(N)N)C(=O)N[C@H](C(=O)N[C@@H](CCC(=O)O)C(=O)N[C@@H](Cc1c[nH]c2ccccc12)C(=O)N[C@@H](CC(C)C)C(=O)N[C@@H](CCCN=C(N)N)C(=O)N[C@@H](CCCCN)C(=O)N[C@@H](CCCCN)C(=O)N[C@@H](CC(C)C)C(=O)N[C@@H](CCC(N)=O)C(=O)N[C@@H](CC(=O)O)C(=O)N[C@H](C(=O)N[C@@H](Cc1cnc[nH]1)C(=O)N[C@@H](CC(N)=O)C(=O)N[C@@H](Cc1ccccc1)C(=O)O)C(C)C)C(C)C [PTH, Teriparatide]
survival (survived/total) (98 mice, lethal irradiation, PTH 80 mcg/kg/day for 28 days, placebo 16/49): 24/49
reduction in mortality (772 cGy, 200 mcg/kg experiments, LD50/30 changed to LD25/30): 25%
thrombocytopenia duration or nadir (772 cGy, PTH 80 mcg/kg/day vs placebo): no significant difference
Thirty day survival (772 cGy, PTH 200 mcg/kg daily for 28 days (8/12)): 67%
Thirty day survival (772 cGy, PTH 200 mcg/kg twice daily for 28 days (9/12)): 75%
49 day survival (772 cGy, PTH 400 mcg/kg/day x 7 days (Group 4), p=0.02): 100%
49 day survival (772 cGy, PTH 400 micrograms/kg/day x 28 days (Group 2, 9/10), p=0.05): 90%
49 day survival (772 cGy, PTH 1000 micrograms/kg/day then 400 mcg/kg/day for 7 days (Group 3, 9/10), p=0.05): 90%
preputial inflammation and abscess among survivors (1000 mcg/kg dose group, control survivors 3/6): ⅙
30-day survival (7 day course of PTH 400 mcg/kg/day following an LD50/30 radiation exposure): 100%
survival (daily or twice doses of PTH, lethal irradiation dose expected to result in 50% death of mice (summary)): 100%
preputial inflammation and abscess / infection among survivors (other PTH groups (400 mcg/kg/day x 28 days or x 7 days), control survivors 3/6): None were observed; also recorded: prevents infection
